Data reported in patent US7528138B2, “Pyrazolo[1,5-a]pyrimidines useful as inhibitors of protein kinases” (Vertex Pharmaceuticals Incorporated, priority 2004, dated 2009).

Tests used:
Type in all cases: biochemical
[1] = biological target: T1, Aurora-2 (Homo sapiens, UniProt O14965); test: Aurora-A (Aurora-2) Inhibition Assay, coupled enzyme assay; conditions: enzyme inhibition data (Ki), Table 11; read-out: AurA Ki
T1 sequence (O14965 1-403): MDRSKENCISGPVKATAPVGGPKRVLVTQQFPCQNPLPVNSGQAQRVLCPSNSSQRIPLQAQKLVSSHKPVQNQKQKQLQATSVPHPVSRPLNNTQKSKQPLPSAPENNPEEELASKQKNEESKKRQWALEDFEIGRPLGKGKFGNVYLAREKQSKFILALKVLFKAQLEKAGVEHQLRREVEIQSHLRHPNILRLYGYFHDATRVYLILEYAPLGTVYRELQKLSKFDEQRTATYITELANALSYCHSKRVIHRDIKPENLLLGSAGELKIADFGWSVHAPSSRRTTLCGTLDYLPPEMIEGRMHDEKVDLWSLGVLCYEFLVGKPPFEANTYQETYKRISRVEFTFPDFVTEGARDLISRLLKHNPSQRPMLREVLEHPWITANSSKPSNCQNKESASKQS
Protocol: Compounds are screened for their ability to inhibit Aurora-2 using a standard coupled enzyme assay (Fox et al., Protein Sci., (1998) 7, 2249). Assays are carried out in a mixture of 100 mM Hepes (pH7.5), 10 mM MgCl2, 1 mM DTT, 25 mM NaCl, 2.5 mM phosphoenolpyruvate, 300 μM NADH, 30 μg/ml pyruvate kinase and 10 μg/ml lactate dehydrogenase. Final substrate concentrations in the assay are 400 μM ATP (Sigma Chemicals) and 570 μM peptide (Kemptide, American Peptide, Sunnyvale, Calif.). Assays are carried out at 30° C. and in the presence of 40 nM Aurora-2.
An assay stock buffer solution is prepared containing all of the reagents listed above, with the exception of Aurora-2 and the test compound of interest. 55 μl of the stock solution is placed in a 96 well plate followed by addition of 2 μl of DMSO stock containing serial dilutions of the test compound (typically starting from a final concentration of 7.5 μM). The plate is preincubated for 10 minutes at 30° C. and the reaction initiated by addition of 10 μl of Aurora-2. Initial reaction rates are determined with a Molecular Devices SpectraMax Plus plate reader over a 10 minute time course. IC50 and Ki data are calculated from non-linear regression analysis using the Prism software package (GraphPad Prism version 3.0cx for Macintosh, GraphPad Software, San Diego Calif., USA).

[2] = biological target: T2, Itk (Homo sapiens, UniProt Q08881); test: ITK Inhibition Assay (Radiometric), radioactive-phosphate incorporation; conditions: enzyme inhibition data (Ki), Table 11; radiometric or UV assay not stated
T2 sequence (Q08881 1-620): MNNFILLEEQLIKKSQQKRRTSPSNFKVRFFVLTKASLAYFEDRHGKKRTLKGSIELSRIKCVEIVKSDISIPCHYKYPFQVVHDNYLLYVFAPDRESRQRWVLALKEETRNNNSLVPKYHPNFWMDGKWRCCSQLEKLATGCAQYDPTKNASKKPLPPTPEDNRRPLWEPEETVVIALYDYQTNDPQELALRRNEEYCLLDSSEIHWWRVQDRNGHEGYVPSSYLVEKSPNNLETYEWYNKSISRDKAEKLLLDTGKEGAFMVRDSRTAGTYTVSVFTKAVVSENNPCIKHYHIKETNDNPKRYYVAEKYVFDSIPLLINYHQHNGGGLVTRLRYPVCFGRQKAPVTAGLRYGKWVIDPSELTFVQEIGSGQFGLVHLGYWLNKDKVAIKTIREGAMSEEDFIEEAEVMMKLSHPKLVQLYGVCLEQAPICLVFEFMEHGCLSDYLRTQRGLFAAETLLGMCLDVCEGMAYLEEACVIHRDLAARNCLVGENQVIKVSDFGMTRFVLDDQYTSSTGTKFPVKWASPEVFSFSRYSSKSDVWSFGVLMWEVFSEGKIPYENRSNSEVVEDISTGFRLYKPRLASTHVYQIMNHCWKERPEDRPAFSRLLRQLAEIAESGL
In short: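 Radiometric 33P incorporation into SAM68 peptide (D332-443) with filter capture and scintillation counting; 10 min pre-incubation then 10 min reaction at 25° C. IC50 format: 30 nM Itk, 15 μM ATP, 2 μM peptide, HEPES pH 7.5. Ki(app) format: 50 nM Itk, 7.5 μM ATP, 3 μM peptide, MOPS pH 7.0.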

[3] = biological target: c-Met (Homo sapiens, UniProt P08581); test: c-Met Inhibition Assay, coupled enzyme system; conditions: enzyme inhibition data (Ki), Table 11
In short: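 Pyruvate kinase/lactate dehydrogenase-coupled NADH assay in HEPES pH 7.5 with 80 nM c-Met, 200 μM ATP and 10 μM polyGluTyr at 30° C. Compound (0.006–12.5 μM final, 12-point) preincubated 10 min before ATP start; rates over 10 min gave Ki.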

[4] = biological target: T3, JAK3 (Homo sapiens, UniProt P52333); test: JAK3 Inhibition Assay, 33P incorporation; conditions: enzyme inhibition data (Ki), Table 11
T3 sequence (P52333 1-1124): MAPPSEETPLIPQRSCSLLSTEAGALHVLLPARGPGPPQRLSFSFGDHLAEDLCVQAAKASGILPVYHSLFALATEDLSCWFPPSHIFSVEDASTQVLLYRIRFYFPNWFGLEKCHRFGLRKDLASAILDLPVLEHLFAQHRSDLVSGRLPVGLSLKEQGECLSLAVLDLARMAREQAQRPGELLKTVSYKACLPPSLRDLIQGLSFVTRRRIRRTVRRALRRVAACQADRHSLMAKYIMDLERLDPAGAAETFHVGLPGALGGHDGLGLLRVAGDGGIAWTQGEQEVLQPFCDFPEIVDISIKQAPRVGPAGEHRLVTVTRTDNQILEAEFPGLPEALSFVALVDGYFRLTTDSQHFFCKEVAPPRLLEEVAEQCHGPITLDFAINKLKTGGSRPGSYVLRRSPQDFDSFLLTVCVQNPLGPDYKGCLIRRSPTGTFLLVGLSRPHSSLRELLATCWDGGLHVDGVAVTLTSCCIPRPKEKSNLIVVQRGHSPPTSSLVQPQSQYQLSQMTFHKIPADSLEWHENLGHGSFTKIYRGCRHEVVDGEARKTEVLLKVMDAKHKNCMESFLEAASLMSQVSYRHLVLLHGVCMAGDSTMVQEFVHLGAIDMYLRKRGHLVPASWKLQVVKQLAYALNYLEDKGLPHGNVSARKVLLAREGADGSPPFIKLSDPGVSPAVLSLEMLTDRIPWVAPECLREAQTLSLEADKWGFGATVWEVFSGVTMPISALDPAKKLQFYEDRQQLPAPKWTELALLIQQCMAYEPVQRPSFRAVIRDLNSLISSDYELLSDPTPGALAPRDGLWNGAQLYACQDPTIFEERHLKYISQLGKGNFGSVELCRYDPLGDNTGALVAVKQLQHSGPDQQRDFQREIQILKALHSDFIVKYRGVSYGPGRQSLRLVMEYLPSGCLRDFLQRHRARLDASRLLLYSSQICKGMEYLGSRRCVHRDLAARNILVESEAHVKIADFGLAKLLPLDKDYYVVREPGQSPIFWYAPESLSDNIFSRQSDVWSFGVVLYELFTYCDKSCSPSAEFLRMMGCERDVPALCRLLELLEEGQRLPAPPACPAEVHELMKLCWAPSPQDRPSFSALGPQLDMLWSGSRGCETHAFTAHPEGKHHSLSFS
In short: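 33P incorporation into 1 μM poly(Glu)4Tyr was counted after TCA stop and glass fiber filtration. The 20 min reaction ran at 25 °C with 1 nM JAK3 and 5 μM ATP (200 uCi/μmole). Buffer was 100 mM HEPES pH 7.4, 10 mM MgCl2, 25 mM NaCl, 1 mM DTT, 0.01% BSA.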

Chain of c-Met (P08581 25-1390): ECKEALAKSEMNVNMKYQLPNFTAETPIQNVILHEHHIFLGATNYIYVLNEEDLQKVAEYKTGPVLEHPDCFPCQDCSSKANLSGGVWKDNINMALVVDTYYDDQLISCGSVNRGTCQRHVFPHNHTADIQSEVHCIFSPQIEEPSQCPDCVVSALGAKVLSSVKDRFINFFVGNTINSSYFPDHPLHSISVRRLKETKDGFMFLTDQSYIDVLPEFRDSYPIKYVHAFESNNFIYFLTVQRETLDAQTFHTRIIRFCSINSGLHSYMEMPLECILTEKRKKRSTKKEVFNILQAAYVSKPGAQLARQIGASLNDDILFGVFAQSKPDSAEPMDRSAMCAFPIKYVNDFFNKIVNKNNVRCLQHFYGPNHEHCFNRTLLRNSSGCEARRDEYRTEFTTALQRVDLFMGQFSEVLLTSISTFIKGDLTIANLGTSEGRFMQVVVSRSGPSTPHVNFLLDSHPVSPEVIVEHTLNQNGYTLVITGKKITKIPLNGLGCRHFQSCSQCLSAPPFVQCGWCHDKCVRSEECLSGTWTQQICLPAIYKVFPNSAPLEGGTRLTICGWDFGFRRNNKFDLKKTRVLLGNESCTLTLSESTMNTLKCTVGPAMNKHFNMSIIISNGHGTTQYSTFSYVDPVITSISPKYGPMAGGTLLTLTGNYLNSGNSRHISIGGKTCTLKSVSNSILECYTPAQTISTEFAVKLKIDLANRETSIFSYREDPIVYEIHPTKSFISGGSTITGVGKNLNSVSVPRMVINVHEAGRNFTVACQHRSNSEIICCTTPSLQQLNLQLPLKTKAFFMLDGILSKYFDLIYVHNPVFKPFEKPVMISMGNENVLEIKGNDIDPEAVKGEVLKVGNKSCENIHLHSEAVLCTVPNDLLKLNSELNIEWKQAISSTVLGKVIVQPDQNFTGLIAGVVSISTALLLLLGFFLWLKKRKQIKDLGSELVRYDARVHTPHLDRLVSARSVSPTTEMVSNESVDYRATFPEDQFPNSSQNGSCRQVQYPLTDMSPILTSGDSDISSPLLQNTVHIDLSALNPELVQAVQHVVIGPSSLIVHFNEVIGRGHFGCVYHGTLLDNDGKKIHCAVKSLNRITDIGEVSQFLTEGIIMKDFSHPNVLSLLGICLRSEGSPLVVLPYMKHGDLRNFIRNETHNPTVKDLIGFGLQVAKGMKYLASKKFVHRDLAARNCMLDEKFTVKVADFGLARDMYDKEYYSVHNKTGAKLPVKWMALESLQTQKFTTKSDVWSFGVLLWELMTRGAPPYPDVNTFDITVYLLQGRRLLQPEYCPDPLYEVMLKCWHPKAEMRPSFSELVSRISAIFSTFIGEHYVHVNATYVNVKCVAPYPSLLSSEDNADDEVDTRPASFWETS

Structure (SMILES) | Ki [1] [nM] | Ki [2] [nM] | Ki [3] [nM] | Ki [4] [nM]
Cc1cnc2c(-c3cc(N[C@@H]4CCC[C@H]4OCc4ccccc4)ncn3)c(N)nn2c1 [Compound V-336] | – | 500 to 5000 | < 500 | 500 to 5000
Cc1cnc2c(-c3cc(N4CCCC(CO)C4)ncn3)c(N)nn2c1 (centres unmarked) [Compound V-340] | – | 500 to 5000 | < 500 | 500 to 5000
Cc1cnc2c(-c3cc(N4CCC(C(N)=O)CC4)ncn3)c(N)nn2c1 [Compound V-341] | – | 500 to 5000 | 500 to 5000 | 500 to 5000
Cc1cnc2c(-c3cc(N4CCCC(O)C4)ncn3)c(N)nn2c1 (centres unmarked) [Compound V-342] | – | 500 to 5000 | < 500 | 500 to 5000
Cc1cnc2c(-c3cc(N4CCC(NC(=O)C(F)(F)F)C4)ncn3)c(N)nn2c1 (centres unmarked) [Compound V-343] | – | 500 to 5000 | 500 to 5000 | 500 to 5000

Other lines, results leading:

Ki [1] [nM] | Ki [2] [nM] | Ki [3] [nM] | Ki [4] [nM] | Structure (SMILES)
< 500 | < 500 | – | – | CC(C)(C)OC(=O)NCc1ccc(-c2cnc3c(-c4ccccn4)c(N)nn3c2)cc1 [Compound V-192]
< 500 | < 500 | < 500 | – | Nc1nn2cc(-c3ccc(CN4CCCNCC4)cc3)cnc2c1-c1ccccn1 [Compound V-224]
– | 500 to 5000 | < 500 | 500 to 5000 | Cc1cnc2c(-c3cc(N[C@@H]4CCOC4)ncn3)c(N)nn2c1 [Compound V-335]
– | < 500 | < 500 | < 500 | Cc1cnc2c(-c3cc(NC4CCNC4)ncn3)c(N)nn2c1 (centres unmarked) [Compound V-337]
– | < 500 | < 500 | < 500 | Cc1cnc2c(-c3cc(N4CCCC(C)C4)ncn3)c(N)nn2c1 (centres unmarked) [Compound V-339]
